The record followed here is patent publication US20180327396A1, “NOVEL PYRIDINE DERIVATIVES” (Hoffmann-La Roche Inc., priority 2014, published 2018).

For orientation: EC50 means the concentration at which the effect is half-maximal.

In one assay the target is T1, human CB2 receptors (Homo sapiens, UniProt P34972).
T1 construct: expressed in transfected cells; host or cells: CHO cells
T1 sequence (P34972 whole entry): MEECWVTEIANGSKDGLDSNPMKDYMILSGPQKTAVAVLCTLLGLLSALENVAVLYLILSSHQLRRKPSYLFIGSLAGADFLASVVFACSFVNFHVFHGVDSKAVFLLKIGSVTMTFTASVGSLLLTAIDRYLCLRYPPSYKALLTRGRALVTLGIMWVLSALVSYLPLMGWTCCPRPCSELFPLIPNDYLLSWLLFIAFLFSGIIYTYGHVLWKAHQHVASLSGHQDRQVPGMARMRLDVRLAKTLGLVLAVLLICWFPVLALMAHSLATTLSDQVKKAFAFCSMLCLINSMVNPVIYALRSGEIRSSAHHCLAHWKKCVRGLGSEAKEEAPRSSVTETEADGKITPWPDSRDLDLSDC
Description: cAMP assay.
Conditions: not given
The class given is cell-based. As to the method: CHO cells expressing human CB1 or CB2 receptors are seeded 17-24 hours prior to the experiment 50.000 cells per well in a black 96 well plate with flat clear bottom (Corning Costar #3904) in DMEM (Invitrogen No. 31331), 1× HT supplement, with 10% fetal calf serum and incubated at 5% CO2 and 37° C. in a humidified incubator. The growth medium was exchanged with Krebs Ringer Bicarbonate buffer with 1 mM IBMX and incubated at 30° C. for 30 min. Compounds were added to a final assay volume of 100 μl and incubated for 30 min at 30° C. Using the cAMP-Nano-TRF detection kit the assay (Roche Diagnostics) was stopped by the addition of 50 μl lysis reagent (Tris, NaCl, 1.5% Triton X100, 2.5% NP40, 10% NaN3) and 50 μl detection solutions (20 μM mAb Alexa700-cAMP 1:1, and 48 μM Ruthenium-2-AHA-cAMP) and shaken for 2 h at room temperature. The time-resolved energy transfer is measured by a TRF reader (Evotec Technologies GmbH), equipped with a ND:YAG laser as excitation source. The plate is measured twice with the excitation at 355 nm and at the emission with a delay of 100 ns and a gate of 100 ns, total exposure time 10 s at 730 (bandwidth 30 nm) or 645 nm (bandwidth 75 nm), respectively. The FRET signal is calculated as follows: FRET=T730−Alexa730−P(T645−B645) with P=Ru730−B730/Ru645−B645, where T730 is the test well measured at […], T645 is the test well measured at 645 nm, B730 and B645 are the buffer controls at 730 nm and 645 nm, respectively. cAMP content is determined from the function of a standard curve spanning from 10 μM to 0.13 nM cAMP.
EC50 values were determined using Activity Base analysis (ID Business Solution, Limited). The EC50 values for a wide range of cannabinoid agonists generated from this assay for reference compounds were in agreement with the values published in the scientific literature.
(cAMP levels reflect the balance of adenylyl cyclase and phosphodiesterase activity.)
The molecule `O=C(NC12CC3CC(CC(O)(C3)C1)C2)c1ccc(N2CC(F)(F)C2)c(OCC2CC2)n1` [Example 21, 6-(Cyclopropylmethoxy)-5-(3,3-difluoroazetidin-1-yl)-N-(3-hydroxy-1-adamantyl)pyridine-2-carboxamide] returned a concentration giving a half-maximal response (EC50) of 81.6 nM.
Molecule `CC(C)(Cc1nnc(-c2ccccc2)o1)NC(=O)c1ccc(C2CC2)c(-c2ccc(Cl)cc2)n1` [Example 10, 6-(4-Chlorophenyl)-5-cyclopropyl-N-[2-methyl-1-(5-phenyl-1,3,4-oxadiazol-2-yl)propan-2-yl]pyridine-2-carboxamide] registered an EC50 of 265 nM.
In the case of `CC(C)(Cc1nnc(C2CCC2)o1)NC(=O)c1cccc(-c2cccc(Cl)c2)n1` [Example 13, 6-(3-Chlorophenyl)-N-[1-(5-cyclobutyl-1,3,4-oxadiazol-2-yl)-2-methylpropan-2-yl]pyridine-2-carboxamide], it took 294 nM to reach a half-maximal effect (EC50).
On the same count and under the same terms, next, `CC(C)(C)OC(=O)N1CCOC(CNC(=O)c2ccc(C3CC3)c(Cc3ccc(F)cc3)n2)C1` (stereo not drawn) [Example 22, tert-Butyl 2-[[[5-cyclopropyl-6-[(4-fluorophenyl)methyl]pyridine-2-carbonyl]amino]methyl]morpholine-4-carboxylate]: 101 nM; `CC(C)(Cc1nnc(-c2ccccc2)o1)NC(=O)c1ccc(Nc2ccc(Cl)cc2Cl)c(Cl)n1` [Example 9, 6-Chloro-5-(2,4-dichloroanilino)-N-[2-methyl-1-(5-phenyl-1,3,4-oxadiazol-2-yl)propan-2-yl]pyridine-2-carboxamide]: 36.7 nM.
The same measure, in the same setting: next, `COCCOc1cccc(C(=O)NC(C)(C)Cc2nc(-c3ccccc3)no2)n1` [Example 11, 6-(2-Methoxyethoxy)-N-[2-methyl-1-(3-phenyl-1,2,4-oxadiazol-5-yl)propan-2-yl]pyridine-2-carboxamide]: 573 nM; `CC(C)(Cc1nnc(-c2ccccc2)o1)NC(=O)c1cccc(-c2cccc(Cl)c2)n1` [Example 6, 6-(3-Chlorophenyl)-N-[2-methyl-1-(5-phenyl-1,3,4-oxadiazol-2-yl)propan-2-yl]pyridine-2-carboxamide]: 182 nM.
Still for that read-out and setting: under `NC(=O)[C@H]1CSCCN1C(=O)c1cnc(C2CC2)c(OCC2CC2)n1` [Example 23, (+)-4-[5-Cyclopropyl-6-(cyclopropylmethoxy)pyrazine-2-carbonyl]thiomorpholine-3-carboxamide] stands 589 nM; under `CC(C)(Cc1nnc(-c2ccccc2)o1)NC(=O)c1cccc(OCC(F)(F)F)n1` [Example 3, N-[2-Methyl-1-(5-phenyl-1,3,4-oxadiazol-2-yl)propan-2-yl]-6-(2,2,2-trifluoroethoxy)pyridine-2-carboxamide], 132 nM; under `CC(C)(NC(=O)c1cccc(-c2ccc(Cl)cc2Cl)n1)c1nnc(-c2ccccc2)o1` [Example 14, 6-(2,4-Dichlorophenyl)-N-[2-(5-phenyl-1,3,4-oxadiazol-2-yl)propan-2-yl]pyridine-2-carboxamide], 227 nM.
As to `COCCOCC(C)(C)c1cc(NC(=O)c2ccc(N3CC(F)(F)C3)c(OCC3CC3)n2)on1` [Example 16, 6-(Cyclopropylmethoxy)-5-(3,3-difluoroazetidin-1-yl)-N-[3-[1-(2-methoxyethoxy)-2-methylpropan-2-yl]-1,2-oxazol-5-yl]pyridine-2-carboxamide], the EC50 worked out at 218 nM.
The same measure, in the same setting: next, `CC(C)(CO)c1cc(NC(=O)c2ccc(C3CC3)c(OCC3CC3)n2)on1` [Example 19, 5-Cyclopropyl-6-(cyclopropylmethoxy)-N-[3-(1-hydroxy-2-methylpropan-2-yl)-1,2-oxazol-5-yl]pyridine-2-carboxamide]: 139 nM; `CCOCCOCC(C)(C)c1cc(NC(=O)c2ccc(C3CC3)c(OCC3CC3)n2)on1` [Example 20, 5-Cyclopropyl-6-(cyclopropylmethoxy)-N-[3-[1-(2-ethoxyethoxy)-2-methylpropan-2-yl]-1,2-oxazol-5-yl]pyridine-2-carboxamide]: 22.5 nM; `CC(C)(Cc1nc(-c2ccccc2)no1)NC(=O)c1cccc(-c2ccc(Cl)cc2)n1` [Example 4, 6-(4-Chlorophenyl)-N-[2-methyl-1-(3-phenyl-1,2,4-oxadiazol-5-yl)propan-2-yl]pyridine-2-carboxamide]: 339 nM.
The same measure, in the same setting: under `CC(C)(CO)n1cc(NC(=O)c2ccc(C3CC3)c(OCC3CC3)n2)cn1` [Example 17, 5-Cyclopropyl-6-(cyclopropylmethoxy)-N-[1-(1-hydroxy-2-methylpropan-2-yl)pyrazol-4-yl]pyridine-2-carboxamide] stands 224 nM; under `CC(C)(Cc1nc(C2CC2)no1)NC(=O)c1cccc(-c2cccc(Cl)c2)n1` [Example 7, 6-(3-Chlorophenyl)-N-[1-(3-cyclopropyl-1,2,4-oxadiazol-5-yl)-2-methylpropan-2-yl]pyridine-2-carboxamide], 244 nM.
Still for that read-out and setting: under `CC(C)(CO)c1cc(NC(=O)c2cnc(C3CC3)c(OCC3CC3)n2)on1` [Example 25, 5-Cyclopropyl-6-(cyclopropylmethoxy)-N-[3-(1-hydroxy-2-methylpropan-2-yl)-1,2-oxazol-5-yl]pyrazine-2-carboxamide] stands 51.6 nM; under `CC(C)(Cc1nnc(C2CC2)o1)NC(=O)c1cccc(-c2ccc(Cl)cc2)n1` [Example 1, 6-(4-Chlorophenyl)-N-[1-(5-cyclopropyl-1,3,4-oxadiazol-2-yl)-2-methylpropan-2-yl]pyridine-2-carboxamide], 497 nM.

Staying with this assay, now noted: CHO cells expressing human CB2 receptors; read-out: cAMP assay human CB2 EC50.
In the case of `CC(C)(Cc1nc(-c2ccccc2)no1)NC(=O)c1cccc(OCC(F)(F)F)n1` [Example 5, N-[2-Methyl-1-(3-phenyl-1,2,4-oxadiazol-5-yl)propan-2-yl]-6-(2,2,2-trifluoroethoxy)pyridine-2-carboxamide], the EC50 came to 554 nM.
The same measure, in the same setting: under `CCOCCOCC(C)(C)c1cc(NC(=O)c2ccc(C3CCCC3)c(OCC3CC3)n2)on1` [Example 30, 5-Cyclopentyl-6-(cyclopropylmethoxy)-N-[3-[1-(2-ethoxyethoxy)-2-methylpropan-2-yl]-1,2-oxazol-5-yl]pyridine-2-carboxamide] stands 176 nM.
The same measure, in the same setting: under `CC(C)(Cc1nc(-c2ccccc2)no1)NC(=O)c1cccc(N2CCCC2=O)n1` [Example 12, N-[2-Methyl-1-(3-phenyl-1,2,4-oxadiazol-5-yl)propan-2-yl]-6-(2-oxopyrrolidin-1-yl)pyridine-2-carboxamide] stands 662 nM; under `CC(C)(Cc1nnc(-c2ccccc2)o1)NC(=O)c1cccc(-c2ccc(Cl)cc2)n1` [Example 2, 6-(4-Chlorophenyl)-N-[2-methyl-1-(5-phenyl-1,3,4-oxadiazol-2-yl)propan-2-yl]pyridine-2-carboxamide], 165 nM.
On the same count and under the same terms, next, `CC(C)(Cc1nc(-c2ccccc2)no1)NC(=O)c1cccc(-c2cccc(Cl)c2)n1` [Example 8, 6-(3-Chlorophenyl)-N-[2-methyl-1-(3-phenyl-1,2,4-oxadiazol-5-yl)propan-2-yl]pyridine-2-carboxamide]: 194 nM; `CC(C)(Cc1nnc(-c2ccc(F)cc2)o1)NC(=O)c1ccc(C2CCCC2)c(OCC2CC2)n1` [Example 28, 5-Cyclopentyl-6-(cyclopropylmethoxy)-N-[1-[5-(4-fluorophenyl)-1,3,4-oxadiazol-2-yl]-2-methylpropan-2-yl]pyridine-2-carboxamide]: 2760 nM.
